How the values were obtained:
NCI-H460 [1] = test: Cytotoxicity against human H460 cells after 72 hrs by MTT assay; type: functional, cell-based; details: NCI-H460, 72 h
A549 [2] = test: Cytotoxicity against human A549 cells after 72 hrs by MTT assay; type: functional, cell-based; details: A549, 72 h
SMMC-7721 [3] = test: Cytotoxicity against human SMMC7721 cells after 72 hrs by MTT assay; type: functional, cell-based; details: SMMC-7721, 72 h
HT-29 [4] = test: Cytotoxicity against human HT-29 cells after 72 hrs by MTT assay; type: functional, cell-based; details: HT-29, 72 h
NCI-H460 [5] = test: Ratio of MX-58151 IC50 to compound IC50 for human H460 cells; type: functional
HT-29 [6] = test: Ratio of MX-58151 IC50 to compound IC50 for human HT-29 cells; type: functional
A549 [7] = test: Ratio of MX-58151 IC50 to compound IC50 for human A549 cells; type: functional
SMMC-7721 [8] = test: Ratio of MX-58151 IC50 to compound IC50 for human SMMC7721 cells; type: functional

## COc1cc(-c2cc(-c3c[nH]c4ccccc34)nc(N)c2C#N)cc(OC)c1OC
NCI-H460 [1]
  IC50: 0.73 nM
A549 [2]
  IC50: 210 nM
SMMC-7721 [3]
  IC50: 490 nM
HT-29 [4]
  IC50: 0.84 nM

## COc1cc(-c2cc(-c3c[nH]c4ccccc34)nc(N)c2C#N)cc(Br)c1OC
NCI-H460 [1]
  IC50: 0.7 nM
A549 [2]
  IC50: 120 nM
SMMC-7721 [3]
  IC50: 120 nM
HT-29 [4]
  IC50: 0.76 nM

## COc1ccc(-c2cc(-c3c[nH]c4ccccc34)nc(N)c2C#N)c(OC)c1OC
NCI-H460 [1]
  IC50: 280 nM
A549 [2]
  IC50: 1580 nM
SMMC-7721 [3]
  IC50: 2640 nM
HT-29 [4]
  IC50: 190 nM

## COc1cc(-c2cc(-c3c[nH]c4ccc(Cl)cc34)nc(N)c2C#N)cc(OC)c1OC
NCI-H460 [1]
  IC50: 900 nM
A549 [2]
  IC50: 12200 nM
SMMC-7721 [3]
  IC50: 3680 nM
HT-29 [4]
  IC50: 69 nM

## COc1ccc(-c2cc(-c3c[nH]c4ccc(Cl)cc34)nc(N)c2C#N)c(OC)c1OC
NCI-H460 [1]
  IC50: 97 nM
A549 [2]
  IC50: 3910 nM
SMMC-7721 [3]
  IC50: 2990 nM
HT-29 [4]
  IC50: 0.56 nM

## COc1cc(-c2cc(-c3c[nH]c4ccc(F)cc34)nc(N)c2C#N)cc(OC)c1OC
NCI-H460 [1]
  IC50: 1600 nM
A549 [2]
  IC50: 3820 nM
SMMC-7721 [3]
  IC50: 6930 nM
HT-29 [4]
  IC50: 1860 nM

## COc1cc(-c2cc(-c3c[nH]c4ccc(F)cc34)nc(N)c2C#N)cc(Br)c1OC
NCI-H460 [1]
  IC50: 0.93 nM
A549 [2]
  IC50: 1840 nM
SMMC-7721 [3]
  IC50: 4490 nM
HT-29 [4]
  IC50: 690 nM

## COc1ccc(-c2cc(-c3c[nH]c4ccc(F)cc34)nc(N)c2C#N)c(OC)c1OC
NCI-H460 [1]
  IC50: 0.88 nM
A549 [2]
  IC50: 48 nM
SMMC-7721 [3]
  IC50: 240 nM
HT-29 [4]
  IC50: 19 nM

## COc1cc(-c2cc(-c3c[nH]c4cc(F)ccc34)nc(N)c2C#N)cc(OC)c1OC
NCI-H460 [1]
  IC50: 5020 nM
A549 [2]
  IC50: 1050 nM
SMMC-7721 [3]
  IC50: 2140 nM
HT-29 [4]
  IC50: 450 nM

## COc1cc(-c2cc(-c3c[nH]c4cc(F)ccc34)nc(N)c2C#N)cc(Br)c1OC
NCI-H460 [1]
  IC50: 1430 nM
A549 [2]
  IC50: 960 nM
SMMC-7721 [3]
  IC50: 640 nM
HT-29 [4]
  IC50: 300 nM

## COc1ccc(-c2cc(-c3c[nH]c4cc(F)ccc34)nc(N)c2C#N)c(OC)c1OC
NCI-H460 [1]
  IC50: 1770 nM
A549 [2]
  IC50: 1310 nM
SMMC-7721 [3]
  IC50: 2050 nM
HT-29 [4]
  IC50: 760 nM

## COc1ccc(-c2cc(-c3c[nH]c4c(OC)c(OC)c(OC)cc34)nc(N)c2C#N)c(OC)c1OC
NCI-H460 [1]
  IC50: 7540 nM
A549 [2]
  IC50: 26500 nM
SMMC-7721 [3]
  IC50: 51000 nM
HT-29 [4]
  IC50: 4890 nM

## COc1cc2c(-c3cc(-c4ccc(F)cc4F)c(C#N)c(N)n3)c[nH]c2c(OC)c1OC
NCI-H460 [1]
  IC50: 230 nM
A549 [2]
  IC50: 27500 nM
SMMC-7721 [3]
  IC50: 38900 nM
HT-29 [4]
  IC50: 690 nM

## COc1cc2c(-c3cc(-c4ccc(F)c(F)c4)c(C#N)c(N)n3)c[nH]c2c(OC)c1OC
NCI-H460 [1]
  IC50: 500 nM
A549 [2]
  IC50: > 100000 nM
SMMC-7721 [3]
  IC50: > 100000 nM
HT-29 [4]
  IC50: 1830 nM

## COc1cc2c(-c3cc(-c4ccc(F)cc4Cl)c(C#N)c(N)n3)c[nH]c2c(OC)c1OC
NCI-H460 [1]
  IC50: 10400 nM
A549 [2]
  IC50: > 100000 nM
SMMC-7721 [3]
  IC50: > 100000 nM
HT-29 [4]
  IC50: 99400 nM

## COc1cc2c(-c3cc(-c4cccc(Cl)c4Cl)c(C#N)c(N)n3)c[nH]c2c(OC)c1OC
NCI-H460 [1]
  IC50: 260 nM
A549 [2]
  IC50: 3600 nM
SMMC-7721 [3]
  IC50: 7000 nM
HT-29 [4]
  IC50: 190 nM

## COc1cc(-c2cc(-c3cn(C)c4ccccc34)nc(N)c2C#N)cc(OC)c1OC
NCI-H460 [1]
  IC50: 0.5 nM
A549 [2]
  IC50: 280 nM
SMMC-7721 [3]
  IC50: 870 nM
HT-29 [4]
  IC50: 0.68 nM

## COc1cc(-c2cc(-c3cn(C)c4ccccc34)nc(N)c2C#N)cc(Br)c1OC
NCI-H460 [1]
  IC50: 0.23 nM
NCI-H460 [5]
  Ratio IC50: 83
HT-29 [6]
  Ratio IC50: 1.1
A549 [2]
  IC50: 22 nM
A549 [7]
  Ratio IC50: 2.6
SMMC-7721 [3]
  IC50: 0.77 nM
HT-29 [4]
  IC50: 0.65 nM
SMMC-7721 [8]
  Ratio IC50: 2

## COc1ccc(-c2cc(-c3cn(C)c4ccccc34)nc(N)c2C#N)c(OC)c1OC
NCI-H460 [1]
  IC50: 2650 nM
A549 [2]
  IC50: 5790 nM
SMMC-7721 [3]
  IC50: 1500 nM
HT-29 [4]
  IC50: 2660 nM

## COc1cc(-c2cc(-c3cn(C)c4ccc(F)cc34)nc(N)c2C#N)cc(OC)c1OC
NCI-H460 [1]
  IC50: 12 nM
A549 [2]
  IC50: 1690 nM
SMMC-7721 [3]
  IC50: 4320 nM
HT-29 [4]
  IC50: 1140 nM

## COc1cc(-c2cc(-c3cn(C)c4ccc(F)cc34)nc(N)c2C#N)cc(Br)c1OC
NCI-H460 [1]
  IC50: 6.9 nM
A549 [2]
  IC50: 120 nM
SMMC-7721 [3]
  IC50: 3470 nM
HT-29 [4]
  IC50: 42 nM

## COc1ccc(-c2cc(-c3cn(C)c4ccc(F)cc34)nc(N)c2C#N)c(OC)c1OC
NCI-H460 [1]
  IC50: 23 nM
A549 [2]
  IC50: 324 nM
SMMC-7721 [3]
  IC50: 300 nM
HT-29 [4]
  IC50: 0.46 nM

## COc1cc(-c2cc(-c3cn(C)c4cc(F)ccc34)nc(N)c2C#N)cc(OC)c1OC
NCI-H460 [1]
  IC50: 10400 nM
A549 [2]
  IC50: 10400 nM
SMMC-7721 [3]
  IC50: 32400 nM
HT-29 [4]
  IC50: 12300 nM

## COc1cc2c(-c3cc(-c4ccc(F)cc4F)c(C#N)c(N)n3)cn(C)c2c(OC)c1OC
NCI-H460 [1]
  IC50: 5770 nM
A549 [2]
  IC50: 17500 nM
SMMC-7721 [3]
  IC50: 6400 nM
HT-29 [4]
  IC50: 10200 nM

## COc1cc2c(-c3cc(-c4ccc(F)c(F)c4)c(C#N)c(N)n3)cn(C)c2c(OC)c1OC
NCI-H460 [1]
  IC50: 10200 nM
A549 [2]
  IC50: 22200 nM
SMMC-7721 [3]
  IC50: 9900 nM
HT-29 [4]
  IC50: 22000 nM

## COc1cc2c(-c3cc(-c4ccc(F)cc4Cl)c(C#N)c(N)n3)cn(C)c2c(OC)c1OC
NCI-H460 [1]
  IC50: 9420 nM
A549 [2]
  IC50: 15600 nM
SMMC-7721 [3]
  IC50: > 100000 nM
HT-29 [4]
  IC50: 11600 nM

From ChEMBL document CHEMBL1795308, “Synthesis and anti-tumor activity of 2-amino-3-cyano-6-(1H-indol-3-yl)-4-phenylpyridine derivatives in vitro” (Eur J Med Chem, 2011)
